Values after ≈ are worked out from the molar mass of the structure shown.
Assays:
Homo sapiens [1] = assay: Plasma concentration in human at 5 to 100 mg, iv; format: ADME, organism-based; conditions: in vivo
[2] = Trough plasma concentration in child with invasive aspergillosis at 30 mg/day for 5 days measured on last day of therapy; format: ADME, organism-based; conditions: human, read-out: Cmin
[3] = Peak plasma concentration in child with invasive aspergillosis at 30 mg/day for 5 days measured on last day of therapy; format: ADME, organism-based; design: dose 30 mg/day; conditions: human
Homo sapiens [4] = assay: Trough plasma concentration in child with invasive aspergillosis administered at 30 mg/day schedule for 5 days followed by 48 hrs temporary treatment interruption measured on first day of resumption of therapy; format: ADME, organism-based; conditions: in vivo
[5] = Peak plasma concentration in child with invasive aspergillosis administered at 30 mg/day schedule for 5 days followed by 48 hrs temporary treatment interruption measured on first day of resumption of therapy; format: ADME, organism-based; design: dose 30 mg/day; conditions: human
Aspergillus fumigatus = assay: Antifungal activity against Aspergillus fumigatus; format: functional

Cp (Homo sapiens [1]): 1000 ng/mL | concentration at 120 h [2]: 6700 ng/mL | Cmax [3]: 11500 ng/mL | Cmin (Homo sapiens [4]): 1900 ng/mL | Cmax [5]: 5600 ng/mL | MIC (Aspergillus fumigatus): 0.5 µg/mL (≈ 0.457 µM)
SMILES: CC[C@H](C)C[C@H](C)CCCCCCCCC(=O)N[C@H]1C[C@@H](O)[C@@H](NCCN)NC(=O)[C@@H]2[C@@H](O)CCN2C(=O)[C@H]([C@H](O)CCN)NC(=O)[C@H]([C@H](O)[C@@H](O)c2ccc(O)cc2)NC(=O)[C@@H]2C[C@@H](O)CN2C(=O)[C@H]([C@@H](C)O)NC1=O [CASPOFUNGIN]
